# US20180042867A1, “METHODS OF TREATING CANCER” (Mitchell Woods Pharmaceuticals, Inc., priority 2015, published 2018)
# How the values were obtained:
# PANC-1 cells [1] = settings: cited from earlier work
# MDA-MD-231 cells = assay: Expression of ABC exporters in MDA-MB-231 cells; assay type: cell-based, human; settings: incubation with MNF
# Source text: See, FIG. 6A. In MDA-MD-231 cells, MNF reduced the expression of P-gp and BCRP while the signal associated with MRP-1 was too faint to detect in the untreated controls as shown in FIG. 6B. As observed in the expression of cyclin D1, the expression of ABC transporters has been associated with EGFR expression and activity and nuclear translocation of PKM2. Thus, the observed effects are consistent with an MNF-associated reduction in EGFR expression and activity through it effect on glycolysis.
# [2] = system: MDA-MB-231 breast cancer cells; assay: Intracellular lactate, targeted metabolomics (LC/MS); assay type: cell-based, human; settings: MDA-MB-231, MNF (1 µM), 3 hours
# Method: The cells were seeded on 100×20 mm tissue culture plates and maintained at 37° C. under humidified 5% CO2 in air until they reached >70% confluence. The original media was replaced with media containing 0.5 μM or 1 μM MNF and the plates were incubated for an additional 1 hour, unless otherwise indicated. After completion of incubations, the media was aspirated and the cells were washed twice with 10 ml of phosphate buffer saline (pH 7.4) (PBS). The cells were then collected in 10 ml PBS by scrapping and sedimented by centrifugation (1000 rpm, 5 min), and the supernatant discarded. The cell pellets were stored at −80° C. until analyzed. […]
# The cells pellets were suspended in 20 μL water, 10 μL of 0.1 mM p-aminohippuric acid as an internal standard was added and the resulting mixture vortex mixed for 1 minute. […] The supernatant was collected and analysed using a system composed of an Agilent Technologies 1100 LC/MSD equipped with a G1322A degasser, G1312A quaternary pump, G1367A autosampler, G1316A column thermostat and G1946D mass spectrometer supplied with electrospray ionization (ESI). […] The compound of interest were monitored in the positive-ion mode for SIM at m/z 162.1 (carnitine), m/z 90.1 (lactate) and m/z 105.1 (3-hydroxybutyrate). The internal standard was monitored at m/z 195.1 (p-aminohippuric acid). […]
# PANC-1 cells [3] = assay: Untargeted metabolomics (1D 1H NMR) of intracellular metabolome; assay type: cell-based, human; settings: PANC-1, MNF 1 μM
# Method: The cells were seeded on 100×20 mm tissue culture plates and maintained at 37° C. under humidified 5% CO2 in air until they reached >70% confluence. The original media was replaced with media containing 0.5 μM or 1 μM MNF and the plates were incubated for an additional 1 hour, unless otherwise indicated. After completion of incubations, the media was aspirated and the cells were washed twice with 10 ml of phosphate buffer saline (pH 7.4) (PBS). The cells were then collected in 10 ml PBS by scrapping and sedimented by centrifugation (1000 rpm, 5 min), and the supernatant discarded. The cell pellets were stored at −80° C. until analyzed.
# The cell pellet was re-suspended in 1 ml of 80% methanol (cryogenically cold) and incubated at −80° C. for 15 minutes. This suspension was then centrifuged at 13,000×g for 10 minutes at 4° C. The supernatant was collected in an eppendorf tube and the pellet was suspended in 0.25 ml of water. The suspension was vortexed mixed for 1 minute and centrifuged at 13,000×g for 10 minutes at 4° C. The supernatant was collected and mixed with the supernatant collected in the previously step and stream dried under nitrogen. The sample was stored at −80° C. until analyzed.
# Sample Preparation and NMR Analysis—Non-Targeted Metabolomics.
# The Cell pellet was re-suspended in 1 ml of 80% methanol (cryogenically cold) and incubated at −80° C. for 15 minutes. This suspension was then centrifuged at 13,000×g for 10 minutes at 4° C. The supernatant was collected in an eppendorf tube and the pellet was suspended in 0.25 ml of water. The suspension was vortexed mixed for 1 minute and centrifuged at 13,000×g for 10 minutes at 4° C. The supernatant was collected and mixed with the supernatant collected in the previously step and stream dried under nitrogen. The sample was stored at −80° C. until analyzed. The samples were prepared for NMR experimentation by dissolving in 0.6 ml of 50 mM phosphate buffer (pH 7.2) in 99.8% D2O with 50 μM 3-(tetramethysilane)propionic acid-2,2,3,3-d4 (TMSP). NMR spectra were recorded on a Bruker Avance III-HD 700 MHz spectrometer equipped with a QCI-P cryoprobe and a SampleJet automated sample changer. 1D ^1H spectra were collected using excitation sculpting to remove the solvent signal. A total of 16 k data points with a spectral width of 5482.5 Hz, 8 dummy scans, and 256 scans were used to obtain each spectrum. The data was processed completely in MVAPACK.
# An untargeted metabolomics approach using one-dimensional proton nuclear magnetic resonance (1D ^1H NMR) was used to examine the effect of MNF incubation (1 μM, 1 hour) on the intracellular metabolome of PANC-1 cells.
# PANC-1 = assay: Proliferation in pancreatic cancer (PancCA) cell lines; assay type: cell-based, human; settings: including PANC-1
# MCF-7 cells [4] = assay: Expression of ABC exporters in MCF-7 cells; assay type: cell-based, human; settings: incubation with MNF
# MCF-7 cells [5] = settings: by enhancing cytotoxicity of alkylating agents, cisplatin and melphalan; cited from earlier work
smiles,measurement,setting,value
O=C(O)C(=O)CBr [3-bromopyruvate],cellular survival,PANC-1 cells [1],lowers cellular survival
"COc1ccc(C[C@@H](C)NC[C@H](O)c2cc(O)cc(O)c2)c2ccccc12 [MNF, (R,R′)-4′-methoxy-1-naphthylfenoterol]",expression of BCRP,MDA-MD-231 cells,reduced
same,expression of P-gp,MDA-MD-231 cells,reduced
same,reduction in the intracellular concentration of lactate,[2],~50%
same,relative expression of 3-hydroxybutyrate,PANC-1 cells [3],increase
same,signal associated with carnitine,PANC-1 cells [3],significantly upregulated
same,signal associated with glycine,PANC-1 cells [3],significantly upregulated
same,signal associated with leucine,PANC-1 cells [3],significantly upregulated
same,signal associated with lysine,PANC-1 cells [3],significantly upregulated
same,signal associated with lactate,PANC-1 cells [3]; vs untreated cells,significantly reduced
same,proliferation,PANC-1,significantly reduce proliferation
same,expression of BCRP,MCF-7 cells [4],significantly reduced
same,expression of MRP-1,MCF-7 cells [4],significantly reduced
same,expression of P-gp,MCF-7 cells [4],significantly reduced
O=C(O)c1nn(Cc2ccc(Cl)cc2Cl)c2ccccc12 [lonidamine],cellular survival,MCF-7 cells [5],lowers cellular survival
